The results in this text go back to patent US8318186B2, “Use of at least a fatty ester for preparing a composition designed to inhibit 5-α-reductase activity, in pharmacology, in particular dermatology, in cosmetics and as food additive” (Laboratoires Expanscience, priority 2000, dated 2012).

This assay has as its target T1, 5α-reductase (Homo sapiens, UniProt P18405).
T1 construct: endogenous in cells; host or cells: DU145 prostate carcinoma cells (ATCC HTB 81)
T1 sequence (P18405 1-259): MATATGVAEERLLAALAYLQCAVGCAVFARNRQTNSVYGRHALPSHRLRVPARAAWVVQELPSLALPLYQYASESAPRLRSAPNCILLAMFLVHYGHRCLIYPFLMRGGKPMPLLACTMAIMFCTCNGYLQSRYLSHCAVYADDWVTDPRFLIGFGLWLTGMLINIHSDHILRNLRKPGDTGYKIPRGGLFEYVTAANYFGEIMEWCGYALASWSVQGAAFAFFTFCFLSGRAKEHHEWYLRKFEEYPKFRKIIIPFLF
As to the kind of experiment: Inhibition of the 5α-reductase of DU145 cells: quantity of 5-dihydrotestosterone formed from testosterone (RIA). The class given is cell-based. As to the method: The prostatic cells DU145 are derived from a tumor line obtained from a prostate carcinoma (ATCC No. HTB 81). The MEM medium (ref. 0410265), the glutamine and the gentamycin are from Gibco. The fetal calf serum (FCS) is from DAP and is used decomplementized ([…] at 56° C.). The plastics serving for the culture (dishes and plates) are from Costar. The testosterone is from Sigma.
A stock solution in ethanol at 10 mg/ml is prepared from each of the products tested.
The concentration range used for the experiments is the following: 0, 5, 10, 50, 100 and 500 micrograms/ml. (Dilution performed in the culture medium).
The volume of extract added per well being 20 microliters/well, the solutions to be prepared are concentrated 50×.
A stock solution of testosterone at 10 mM is prepared in ethanol. At the time of its use, this solution is diluted 1:1 000 in the culture medium and 10 microliters are added per well.
The prostatic cells DU145 are cultured at 37° C., 5% Co2 in an MEM medium containing glutamine (2 mM), gentamycin (50 micrograms/ml) and 10% FCS. Their subculture rate is 1:10.
Before starting the experiment, the cells are placed in culture in 6-well plates at the rate of 2×10^5 DU145 cells per well/1 ml of medium containing only 1% FCS. The cells are maintained for 3 days at 37° C., 5% CO2. […]

For the compound `CCCCCCCC/C=C\CCCCCCCC(=O)OC` [Methyl oleate, methyl oleate], for the setting “conclusions of Example 2”, the “5α-reductase inhibitory activity, in words” value is recorded as “markedly less active than the methyl esters of avocado”. Also, the IC50 (testosterone 0.1 micromolar, 3 hours, read-out: IC 50, conversion of testosterone to 5-dihydrotestosterone by the DU 145 cells (converted)) was 1300 µM.
